The test system of this experiment is BDF1 mice, L1210 6-MP/6-TG resistant leukemia ip, survival T/C. The experiment in a line: NCI In Vivo Anticancer Drug Screen. Data for tumor model L1210 Leukemia resistant to 6-MP and 6-Thioguanine; NSC 755, NSC 752 (intraperitoneal) in B6D2F1 (BDF1) mice. The settings on record: endpoint: mean survival time, higher = longer survival. How it is done: The antitumor activity of compounds was measured in mice bearing transplantable tumors. Survival or tumor size were measured and the results are expressed as the measurement made in the treated group (T) divided by the measurement made in the vehicle treated control group (C). The tumor model used in this assay is L1210 Leukemia resistant to 6-MP and 6-Thioguanine; NSC 755, NSC 752 (intraperitoneal) in B6D2F1 (BDF1) mice

Setting [1] is: dose: 10.0 mg/kg/injection, schedule: Q01DX015 (ip), vehicle: saline.
Where [2] appears, read: dose: 50.0 mg/kg/injection, schedule: Q01DX015 (ip), vehicle: saline.
The mark [3] stands for this setting: dose: 25.0 mg/kg/injection, schedule: Q01DX Z (ip), vehicle: saline.
Setting [4] is: dose: 6.0 mg/kg/injection, schedule: Q01DX Z (ip), vehicle: carboxymethylcellulose (CMC).

“And” between values parts separate entries of the source, which are not always exact repeats. Identical values can stand only once. Inconclusive results and toxic doses are left out.

`Nc1nc2n[nH]nc2c(=O)[nH]1`: the T/C by setting is: (dose: 12.5 mg/kg/injection, schedule: Q01DX Z (ip), vehicle: water) 100 % of control; (dose: 25.0 mg/kg/injection, schedule: Q01DX Z (ip), vehicle: water) 104 % of control; (dose: 50.0 mg/kg/injection, schedule: Q01DX Z (ip), vehicle: water) 98 % of control; (dose: 100.0 mg/kg/injection, schedule: Q01DX Z (ip), vehicle: water) 92 % of control; (dose: 200.0 mg/kg/injection, schedule: Q01DX Z (ip), vehicle: water) 95 % of control.

For `C=CCSc1ncnc2c1ncn2C1OC(CO)C(O)C1O` (centres undefined), the T/C was 112 % of control (dose: 5.0 mg/kg/injection, schedule: Q01DX015 (ip), vehicle: saline); 102 % of control under setting [1]; 100 % of control (dose: 20.0 mg/kg/injection, schedule: Q01DX015 (ip), vehicle: saline); 100 % of control (dose: 40.0 mg/kg/injection, schedule: Q01DX015 (ip), vehicle: saline); 105 % of control under setting [2]; 94 % of control (dose: 100.0 mg/kg/injection, schedule: Q01DX015 (ip), vehicle: saline). In addition, the T/C (dose: 200.0 mg/kg/injection, schedule: Q01DX015 (ip), vehicle: saline) was 90 % of control.

As to `[N-]=[N+]=CC(=O)NCC(=O)NN`, the T/C (dose: 62.0 mg/kg/injection, schedule: Q01DX Z (ip), vehicle: saline) is 114 % of control.

In the case of `O[C@H](CN1CC1)[C@@H](O)CN1CC1`, the T/C (dose: 0.25 mg/kg/injection, schedule: Q01DX Z (ip), vehicle: saline) is 253 % of control; the T/C (dose: 1.0 mg/kg/injection, schedule: Q01DX Z (ip), vehicle: saline) was 91 % of control; the T/C (dose: 90.0 micrograms/kg/injection, schedule: Q01DX Z (ip), vehicle: saline) is 156 % of control; the T/C (dose: 180.0 micrograms/kg/injection, schedule: Q01DX Z (ip), vehicle: saline) is 121 % of control; the T/C (dose: 370.0 micrograms/kg/injection, schedule: Q01DX Z (ip), vehicle: saline) was 120 % of control.

In the case of `CC1CCOS(=O)O1` (centres undefined), the T/C runs as follows: (dose: 12.5 mg/kg/injection, schedule: Q01DX Z (ip), vehicle: saline) 101 % of control; under setting [3], 106 % of control; (dose: 37.5 mg/kg/injection, schedule: Q01DX Z (ip), vehicle: saline) 97 % of control; (dose: 75.0 mg/kg/injection, schedule: Q01DX Z (ip), vehicle: saline) 99 % of control; (dose: 100.0 mg/kg/injection, schedule: Q01DX Z (ip), vehicle: saline) 91 % of control.

As to `CCSc1nc(Cl)cc(Sc2nc(N)nc3nc[nH]c23)n1`, the T/C runs as follows: (dose: 8.0 mg/kg/injection, schedule: Q01DX Z (ip), vehicle: other) 107 % of control; (dose: 16.0 mg/kg/injection, schedule: Q01DX Z (ip), vehicle: other) 90 % of control.

As for `S=c1nc[nH]c2c1ncn2C1CCCC1`, the T/C (dose: 10.0 mg/kg/injection, schedule: Q01DX015 (ip), vehicle: carboxymethylcellulose (CMC)) was 95 % of control; the T/C under setting [1] is 100 % of control; the T/C (dose: 30.0 mg/kg/injection, schedule: Q01DX015 (ip), vehicle: carboxymethylcellulose (CMC)) was 98 % of control; the T/C (dose: 50.0 mg/kg/injection, schedule: Q01DX015 (ip), vehicle: carboxymethylcellulose (CMC)) was 97 % of control; the T/C under setting [2] was 93 % of control.

As to `Clc1ncnc2c1ncn2C1CCCCO1` (centres undefined), the T/C (dose: 62.0 mg/kg/injection, schedule: Q01DX Z (ip), vehicle: other) was 96 % of control and the T/C (dose: 125.0 mg/kg/injection, schedule: Q01DX Z (ip), vehicle: other) is 91 % of control.

For the compound `COc1cc2c(c3c1c(=O)c1ccccc1n3C)C=CC(C)(C)O2`, the T/C was 106 % of control (dose: 20.0 mg/kg/injection, schedule: Q01DX015 (ip), vehicle: carboxymethylcellulose (CMC)) and 116 % of control (dose: 40.0 mg/kg/injection, schedule: Q01DX015 (ip), vehicle: carboxymethylcellulose (CMC)).

Turning to `CCC(=O)OCC1OC(n2cnc3c(=S)nc(N)[nH]c32)C(OC(=O)CC)C1OC(=O)CC` (centres undefined), the T/C reads like this: (dose: 5.0 mg/kg/injection, schedule: Q01DX Z (ip), vehicle: carboxymethylcellulose (CMC)) 109 % of control; (dose: 10.0 mg/kg/injection, schedule: Q01DX Z (ip), vehicle: carboxymethylcellulose (CMC)) 117 % of control; (dose: 20.0 mg/kg/injection, schedule: Q01DX Z (ip), vehicle: carboxymethylcellulose (CMC)) 109 % of control; (dose: 40.0 mg/kg/injection, schedule: Q01DX Z (ip), vehicle: carboxymethylcellulose (CMC)) 103 % of control.

On to `O=c1cn[nH]c(=O)[nH]1`, for which the T/C is 109 % of control (dose: 125.0 mg/kg/injection, schedule: Q01DX Z (ip), vehicle: carboxymethylcellulose (CMC)); 115 % of control (dose: 250.0 mg/kg/injection, schedule: Q01DX Z (ip), vehicle: carboxymethylcellulose (CMC)); 121 % of control (dose: 375.0 mg/kg/injection, schedule: Q01DX Z (ip), vehicle: carboxymethylcellulose (CMC)); 121 % of control (dose: 500.0 mg/kg/injection, schedule: Q01DX Z (ip), vehicle: carboxymethylcellulose (CMC)).

For `O=C(O)c1cc[c]([Hg][S]c2ncnc3nc[nH]c23)cc1`, the T/C runs as follows: (dose: 12.5 mg/kg/injection, schedule: Q01DX015 (ip), vehicle: carboxymethylcellulose (CMC)) 95 % of control; (dose: 25.0 mg/kg/injection, schedule: Q01DX015 (ip), vehicle: carboxymethylcellulose (CMC)) 87 % of control.

With `O=P(O)(OCC1OC(n2cnc3c(=S)nc[nH]c32)C(O)C1O)Oc1ccccc1` (centres undefined), the T/C is 103 % of control (dose: 200.0 mg/kg/injection, schedule: Q01DX001 (ip), vehicle: carboxymethylcellulose (CMC)); 99 % of control (dose: 300.0 mg/kg/injection, schedule: Q01DX001 (ip), vehicle: carboxymethylcellulose (CMC)); 100 % of control (dose: 400.0 mg/kg/injection, schedule: Q01DX001 (ip), vehicle: carboxymethylcellulose (CMC)); 103 % of control (dose: 500.0 mg/kg/injection, schedule: Q01DX001 (ip), vehicle: carboxymethylcellulose (CMC)); 94 % of control (dose: 750.0 mg/kg/injection, schedule: Q01DX001 (ip), vehicle: carboxymethylcellulose (CMC)); 86 % of control (dose: 1000.0 mg/kg/injection, schedule: Q01DX001 (ip), vehicle: carboxymethylcellulose (CMC)).

With `O=C(Nc1ccc(C2=NCCN2)cc1)c1ccc(C(=O)Nc2ccc(C3=NCCN3)cc2)c([N+](=O)[O-])c1`, the T/C (dose: 0.5 mg/kg/injection, schedule: Q01DX Z (ip), vehicle: methylcellulose (MC)) is 98 % of control; the T/C (dose: 1.0 mg/kg/injection, schedule: Q01DX Z (ip), vehicle: methylcellulose (MC)) was 93 % of control; the T/C (dose: 2.0 mg/kg/injection, schedule: Q01DX Z (ip), vehicle: carboxymethylcellulose (CMC)) is 181 % of control; the T/C (dose: 2.0 mg/kg/injection, schedule: Q01DX Z (ip), vehicle: methylcellulose (MC)) was 112 % of control; the T/C (dose: 4.0 mg/kg/injection, schedule: Q01DX Z (ip), vehicle: carboxymethylcellulose (CMC)) is 233 % of control; the T/C under setting [4] is 186 % of control. Also, the T/C was 224 % of control (dose: 6.0 mg/kg/injection, schedule: Q01DX Z (ip), vehicle: methylcellulose (MC)); 124 % of control and 232 % of control (dose: 8.0 mg/kg/injection, schedule: Q01DX Z (ip), vehicle: carboxymethylcellulose (CMC)); 173 % of control (dose: 12.0 mg/kg/injection, schedule: Q01DX Z (ip), vehicle: carboxymethylcellulose (CMC)); 107 % of control (dose: 27.0 mg/kg/injection, schedule: Q01DX Z (ip), vehicle: carboxymethylcellulose (CMC)); 224 % of control (dose: 27.0 mg/kg/injection, schedule: Q02DX010 (ip), vehicle: saline); 111 % of control (dose: 60.0 mg/kg/injection, schedule: Q02DX010 (ip), vehicle: saline).

On to `Nc1nc(=S)c2ncn(C3OC(CO)CC3O)c2[nH]1` (centres undefined), for which the T/C was 99 % of control (dose: 1.5 mg/kg/injection, schedule: Q01DX009 (ip), vehicle: other); 99 % of control (dose: 3.0 mg/kg/injection, schedule: Q01DX009 (ip), vehicle: other); 107 % of control (dose: 6.0 mg/kg/injection, schedule: Q01DX009 (ip), vehicle: other); 87 % of control (dose: 12.5 mg/kg/injection, schedule: Q01DX015 (ip), vehicle: other).

As for `NS(=O)(=O)c1ncnc2nc[nH]c12`, the T/C under setting [4] is 122 % of control; the T/C under setting [3] was 112 % of control; the T/C (dose: 50.0 mg/kg/injection, schedule: Q01DX Z (ip), vehicle: saline) was 96 % of control.

For the origin of these results see PubChem BioAssay AID308 (DTP/NCI, 2004).
